In patent US12324769B1, “Double-network versatile hydrogel with antibacterial and drug sequential release capabilities” (Eye Institute of Shandong First Medical University, priority 2023, dated 2025):

Experiments:
[1] = cumulative release of PDRN and verteporfin in PBS at 37° C.; type: physicochemical; settings: from SQPV hydrogel
[2] = system: Raw264.7 cells; experiment: macrophage cytoskeleton staining after LPS/IFN-γ induced M1 polarization; type: cell-based; settings: M1-induced Raw264.7, cytoskeleton staining
Protocol: The anti-inflammatory properties of SQPV hydrogel prepared in Embodiment 1, SQP hydrogel prepared in Comparative embodiment 1 and SQ hydrogel prepared in Comparative embodiment 2 are investigated. […] Therefore, regulating inflammatory response has become the key focus of developing ideal corneal substitutes. […] In this present disclosure, Raw264.7 cells are inoculated on a 6-well plate for 24 h, and then stimulated with LPS (100 nanograms per milliliter (ng/mL)) and interferon gamma (IFN-γ) (20 ng/mL) for 24 h to induce M1 polarization. Then, fresh hydrogel leaching solution is added, and after 24 h, the cytoskeleton is stained with CLSM to observe the morphological changes of macrophages.

Substance | time until almost all encapsulated PDRN is released [1] | macrophage polarization [2] | cumulative release of verteporfin ([1]; after 28 days of incubation)
polydeoxyribonucleotide [PDRN] | ≤ 7 days | promotes macrophages to have M1 to M2 transformation | 
verteporfin [reference compound] |  |  | 72%
